{"source": "patent US8722065B2", "about": "“Lidocaine tape preparation” (priority 2007, dated 2014)", "assay": "Crystal precipitability of lidocaine in the tape preparation / ionic liquid", "type": "physicochemical", "settings": "room temperature for several months", "experimental": "A content initially inducing the crystal precipitation of lidocaine was examined. […] The crystal precipitability and transdermal absorbability therefor were evaluated. Lidoderm (registered trade name, from Endo, lidocaine content: 5%) was used as a standard material. […]", "data": [{"smiles": "CC(O)C(=O)O.CCN(CC)CC(=O)Nc1c(C)cccc1C", "note": "[lactic acid salt of lidocaine]", "values": [{"measurement": "Crystal precipitation on storage", "result": "no crystal precipitation occurred"}]}]}
